{"source": "patent US10765684B2", "about": "“Reduction of side effects from aromatase inhibitors used for treating breast cancer” (HAVAH THERAPEUTICS PTY LTD, priority 2005, dated 2020)", "key": {"[1]": {"conditions": "cited from earlier work"}, "[2]": {"assay": "serum hormone levels in post-menopausal breast cancer patients", "assay_type": "in vivo, post-menopausal women", "conditions": "versus pre-therapy, FIG. 2", "from_the_text": "Five post-menopausal women having similar patient socio-demographic characteristics and ranging in age from 49 years to 56 years (median age 54) were selected for study. Each woman had been diagnosed with node-negative estrogen receptor and PR (Progesterone Receptor) positive BCa (Breast cancer), with tumor sizes ranging from 1.9 cm to 2.3 cm (median tumor size of 2.1 cm) and selected post-surgery (e.g., mastectomy, lumpectomy, or quadrantectomy for primary breast cancer) and post-chemotherapy. None had been subjected to previous attempts at hormone replacement therapy.\n(§1) Each woman selected was subjected to four weeks of aromatase inhibitor therapy (anastrozole 1 mg (ARIMIDEX®) orally as a tablet once a day), and thereafter to an additional eight weeks of the same aromatase inhibitor therapy in combination with the oral administration of 40 mg of testosterone undecanoate as a tablet once a day. During this study, side effects associated with aromatase inhibitor treatment were measured at three separate times: prior to the first week of aromatase inhibitor therapy, following the fourth week of aromatase inhibitor therapy but before administration of testosterone undecanoate was begun, and following the eighth week of combined aromatase inhibitor and androgen replacement therapy.\nThe y axis is picomoles/L of serum."}, "post-menopausal patients [3]": {"system": "post-menopausal patients", "set-up": "species or system post-menopausal women", "conditions": "in vivo", "text": "An endocrine subscale (FACT-ES) to accompany a well-validated QOL measure called the FACT-B (Brady, M J., et al., Journal of Clinical. Oncology., Vol. 15, No. 3 (March 1997) pp. 974-986, which is incorporated in its entirety) was developed specifically for use in trials using drugs likely to cause endocrine related symptoms. See Fallowfield, L J, et al., Breast Cancer Research and Treatment, Vol. 55, No. 2, 1999, pp. 189-199, which is incorporated herein by reference in its entirety. Also, FACT-ES is a validated questionnaire designed to measure quality of life of women with breast cancer who are being treated with endocrine therapies. It consists of the FACT-B questionnaire plus an additional endocrine subscale. FACT-B (breast) consists of the FACT-G (general) QOL tool for cancer patients plus the Breast Cancer subscale. FACT-ES has been developed to measure QOL in patients receiving endocrine therapy for breast cancer. This instrument (FACT-ES) should, therefore, be sensitive to QOL changes in patients in this trial. […]\nAt the three assessment times during the study, the quality of life for each patient was assessed using standard Functional Assessment of Cancer Therapy-Endocrine Symptoms (FACT-ES) questionnaire (See FIG. 8), which questionnaire is a standard method for determining the occurrence and prominence of treatment-related symptoms and side-effects in breast cancer patients. […]"}, "post-menopausal patients [4]": {"system": "post-menopausal patients", "conditions": "in vivo", "from_the_text": "The Western Ontario and McMaster Universities (WOMAC) Osteoarthritis Index™ consists of three VAS, one each pertaining to pain, joint stiffness and physical function. This then gives the WOMAC™ osteoarthritis index composite score.\nFive post-menopausal women having similar patient socio-demographic characteristics and ranging in age from 49 years to 56 years (median age 54) were selected for study. […]\nas §1\nThe y axis is a visual analogue pain scale. Specifically, the y axis indicates a percentage score of a subjective quantification of pain measured out of 100."}, "post-menopausal patients [5]": {"system": "post-menopausal patients", "conditions": "in vivo", "remark": "listed apart in the source", "from_the_text": "Another embodiment of this invention involves measuring cognitive function, including processing speed, working memory, visual memory, and verbal memory.\nFive post-menopausal women having similar patient socio-demographic characteristics and ranging in age from 49 years to 56 years (median age 54) were selected for study. Each woman had been diagnosed with node-negative estrogen receptor and PR (Progesterone Receptor) positive BCa (Breast cancer), with tumor sizes ranging from 1.9 cm to 2.3 cm (median tumor size of 2.1 cm) and selected post-surgery (e.g., mastectomy, lumpectomy, or quadrantectomy for primary breast cancer) and post-chemotherapy. […]\nEach woman selected was subjected to four weeks of aromatase inhibitor therapy (anastrozole 1 mg (ARIMIDEX®) orally as a tablet once a day), and thereafter to an additional eight weeks of the same aromatase inhibitor therapy in combination with the oral administration of 40 mg of testosterone undecanoate as a tablet once a day. During this study, side effects associated with aromatase inhibitor treatment were measured at three separate times: prior to the first week of aromatase inhibitor therapy, following the fourth week of aromatase inhibitor therapy but before administration of testosterone undecanoate was begun, and following the eighth week of combined aromatase inhibitor and androgen replacement therapy. […]"}, "[6]": {"conditions": "cited from earlier work", "remark": "listed apart in the source"}}, "data": [{"smiles": "CCC1(c2ccc(N)cc2)CCC(=O)NC1=O", "note": "(stereo not shown) [aminoglutethimide]", "values": [{"measurement": "tolerability", "setting": "[1]; Cash, Brough et al 1967", "value": "poorly tolerated"}, {"measurement": "adrenal suppression", "setting": "[1]; limited the use of the drug", "value": "marked adrenal suppression"}]}, {"smiles": "CC(C)(C#N)c1cc(Cn2cncn2)cc(C(C)(C)C#N)c1", "note": "[Al only, anastrozole]", "values": [{"measurement": "average estradiol (E2) serum level", "setting": "[2]; following the fourth week of aromatase inhibitor therapy (anastrozole 1 mg once a day)", "value": "drops significantly"}, {"measurement": "remainder of the serum hormone levels (T, FreeT, DHT)", "setting": "[2]; following the fourth week of aromatase inhibitor therapy", "value": "relatively unchanged"}, {"measurement": "quality of life as measured by FACT-ES questionnaires", "setting": "post-menopausal patients [3]", "value": "decreased"}, {"measurement": "reported arthralgia symptoms", "setting": "post-menopausal patients [4]", "value": "elevated levels of arthralgia"}, {"measurement": "cognitive function scores (processing speed, working memory, visual memory, verbal memory; mean Z score)", "setting": "post-menopausal patients [5]", "value": "decreased across all four ability types"}]}, {"smiles": "C[C@]12CC[C@H]3[C@@H](CCC4=CC(=O)CC[C@@]43C)[C@@H]1CC[C@@H]2O", "note": "[testosterone]", "values": [{"measurement": "testosterone broken down in the liver as it is absorbed from the gut", "setting": "[6]; oral delivery", "value": "80-90%"}, {"measurement": "testosterone broken down in the intestines by aromatase and other metabolic pathways", "setting": "[6]; oral", "value": "approximately 85%"}]}, {"smiles": "CCCCCCCCCCC(=O)O[C@H]1CC[C@H]2[C@@H]3CCC4=CC(=O)CC[C@]4(C)[C@H]3CC[C@]12C", "note": "[testosterone undecanoate]", "values": [{"measurement": "oral bioavailability", "setting": "[6]; by-passes the liver via the lymphatic system", "value": "orally bioavailable"}]}]}
